Measured values reported in patent US12491252B2, “Substituted 3-amino-5-phenylbenzamide compounds as covalent inhibitors of enhancer zeste homolog 2 (EZH2) and proteolysis-targeting chimeric derivatives thereof (PROTACs) that induce degradation of EZH2” (Northwestern University, priority 2021, dated 2025).
Blank lines part the entries; values can stand above or below the compound they belong to.

Experiments:
EZH2 [1] = molecular target: T1, EZH2 (Homo sapiens, UniProt Q15910); assay: Western blot of EZH2 protein in C4-2B cells; details: for Degrading EZH2 protein: FIG. 5, 24 or 48 hours; for Degradation of EZH2: FIG. 14, 10 μM for 6 days
T1 sequence (Q15910 whole entry): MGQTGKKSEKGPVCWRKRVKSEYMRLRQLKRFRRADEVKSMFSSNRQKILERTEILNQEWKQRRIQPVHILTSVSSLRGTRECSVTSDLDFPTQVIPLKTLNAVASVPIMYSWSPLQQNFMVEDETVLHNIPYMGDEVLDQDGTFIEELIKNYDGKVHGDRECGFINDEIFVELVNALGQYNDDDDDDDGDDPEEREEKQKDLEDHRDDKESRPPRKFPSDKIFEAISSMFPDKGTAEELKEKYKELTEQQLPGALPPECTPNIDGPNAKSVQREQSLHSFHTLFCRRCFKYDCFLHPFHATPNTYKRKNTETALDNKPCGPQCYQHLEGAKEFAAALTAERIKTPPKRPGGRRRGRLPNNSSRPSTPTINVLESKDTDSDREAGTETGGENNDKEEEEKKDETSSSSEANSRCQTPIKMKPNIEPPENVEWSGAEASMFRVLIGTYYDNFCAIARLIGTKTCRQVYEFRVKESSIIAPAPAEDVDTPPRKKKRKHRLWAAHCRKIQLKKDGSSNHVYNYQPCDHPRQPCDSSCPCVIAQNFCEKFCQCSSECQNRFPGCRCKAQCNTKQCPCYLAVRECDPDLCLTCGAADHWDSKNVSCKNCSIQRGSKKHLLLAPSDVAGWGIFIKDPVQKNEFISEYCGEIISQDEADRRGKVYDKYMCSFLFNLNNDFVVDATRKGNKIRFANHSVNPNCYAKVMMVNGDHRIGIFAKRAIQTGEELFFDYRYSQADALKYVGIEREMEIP
T1 sequence (Q15022 whole entry partner): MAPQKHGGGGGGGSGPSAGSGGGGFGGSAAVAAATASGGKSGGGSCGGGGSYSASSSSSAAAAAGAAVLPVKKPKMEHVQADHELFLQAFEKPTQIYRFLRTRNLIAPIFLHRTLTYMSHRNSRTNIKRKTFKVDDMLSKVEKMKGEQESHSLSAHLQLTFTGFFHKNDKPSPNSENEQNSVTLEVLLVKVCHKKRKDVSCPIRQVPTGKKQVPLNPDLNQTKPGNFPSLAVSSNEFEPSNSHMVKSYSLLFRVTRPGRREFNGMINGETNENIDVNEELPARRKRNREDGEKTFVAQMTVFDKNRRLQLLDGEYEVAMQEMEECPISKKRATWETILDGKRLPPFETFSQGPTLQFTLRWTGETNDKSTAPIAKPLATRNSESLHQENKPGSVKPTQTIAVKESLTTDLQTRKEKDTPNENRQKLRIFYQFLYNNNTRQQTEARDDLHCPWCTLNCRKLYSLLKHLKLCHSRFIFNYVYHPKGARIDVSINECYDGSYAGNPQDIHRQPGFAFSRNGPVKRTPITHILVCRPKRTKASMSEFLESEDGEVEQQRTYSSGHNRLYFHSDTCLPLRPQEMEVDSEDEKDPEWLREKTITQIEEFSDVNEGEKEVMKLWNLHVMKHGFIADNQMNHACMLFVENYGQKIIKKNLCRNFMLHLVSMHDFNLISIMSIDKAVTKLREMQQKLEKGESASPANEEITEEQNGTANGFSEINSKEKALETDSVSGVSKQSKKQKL
T1 sequence (O75530 whole entry partner): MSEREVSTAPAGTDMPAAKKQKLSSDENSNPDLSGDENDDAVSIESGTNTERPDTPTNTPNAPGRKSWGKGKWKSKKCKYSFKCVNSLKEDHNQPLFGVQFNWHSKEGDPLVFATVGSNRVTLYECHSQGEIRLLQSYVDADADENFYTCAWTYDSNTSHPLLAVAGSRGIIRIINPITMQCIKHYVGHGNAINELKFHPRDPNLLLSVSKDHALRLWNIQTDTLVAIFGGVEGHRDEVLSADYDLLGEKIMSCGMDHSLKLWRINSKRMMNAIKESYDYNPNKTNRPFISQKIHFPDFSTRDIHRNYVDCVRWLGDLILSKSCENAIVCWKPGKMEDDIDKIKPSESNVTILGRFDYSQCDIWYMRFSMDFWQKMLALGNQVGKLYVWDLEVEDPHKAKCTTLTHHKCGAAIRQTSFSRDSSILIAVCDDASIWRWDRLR

H3K27me3 = assay: Western blot of H3K27me3 levels in C4-2B cells; assay type: cell-based; details: FIG. 14, 10 μM for 6 days
[2] = Pharmacokinetics in mice, IP cassette dosing, plasma LC/MS/MS; assay type: in vivo, C57Bl/6 mouse; details: mouse, C57Bl/6 mice, 4 mg/kg IP, cassette format
Protocol: FIG. 35. Pharmacokinetics of indicated compounds. Compounds were administered to C57Bl/6 mouse mice at 4 mg/kg using intraperitoneal (IP) injection in cassette format. Plasma was collected at the indicated time points and analyzed by LC/MS/MS using standard methods.
For assessing pharmacokinetics, compounds were administered to C57Bl/6 mouse mice at 4 mg/kg using intraperitoneal (IP) injection in cassette format. Plasma was collected at the indicated time points and analyzed by LC/MS/MS using standard methods.

SUZ12 = assay: Western blot of SUZ12 in C4-2B cells; assay type: cell-based; details: FIG. 14, 10 μM for 6 days
EZH2 [3] = molecular target: T1, EZH2; assay: Western blot of EZH2 protein in DU-145 cells; details: FIG. 27, 6 days treatment
Text: (Upper right western blot) Western blot analysis of EZH2 protein in DU-145 cells after 6 days treatment.

LNCaP cells [4] = assay: Colony assay using LnCaP cells; assay type: cell-based; details: FIG. 17B, treatment for 7 days
Protocol: (§1) FIG. 17A-17B. (FIG. 17A) Live imaging cell proliferation of LNCaP cells. Cells were treated with indicated compounds and monitored over 168 hours for proliferation by phase object confluence. DMSO is set as the negative control. […] (FIG. 17B) Colony assays using LnCaP cells after treatment with the indicated compounds for 7 days.

LNCaP cells [5] = assay: Live imaging cell proliferation of LNCaP cells; assay type: cell-based; details: FIG. 17A, monitored over 168 hours
Text: FIG. 17A-17B. (FIG. 17A) Live imaging cell proliferation of LNCaP cells. […] DMSO is set as the negative control. […] (FIG. 17B) Colony assays using LnCaP cells after treatment with the indicated compounds for 7 days.

C4-2B cells [6] = assay: Colony assay using C4-2B cells; assay type: cell-based; details: FIG. 20B, treatment for 7 days
Protocol: as §1, with “20A-20B.” for “17A-17B.”, “20A)” for “17A)”, “C4-2B” for “LNCaP”, “20B)” for “17B)”, “C4-2B” for “LnCaP”

LNCaP cells [7] = assay: Imaging of LnCaP cells (cell density); assay type: cell-based; details: FIG. 18, 12 days' treatment
Text: FIG. 18. Imaging of LnCaP cells after 12 days' treatment with the indicated compounds.

C4-2B cells [8] = assay: Live imaging cell proliferation of C4-2B cells; assay type: cell-based; details: FIG. 20A, monitored over 168 hours
Text: FIG. 20A-20B. (FIG. 20A) Live imaging cell proliferation of C4-2B cells. […] DMSO is set as the negative control. […] (FIG. 20B) Colony assays using C4-2B cells after treatment with the indicated compounds for 7 days.

EZH2 [9] = molecular target: T1, EZH2; assay: Western blot of EZH2 protein in PC3 cells; details: FIG. 26, 6 days treatment
Text: (Upper right western blot) Western blot analysis of EZH2 protein in PC3 cells after 6 days treatment.

C4-2B cells [10] = assay: Imaging of C4-2B cells (cell density); assay type: cell-based; details: FIG. 21, 12 days' treatment
Text: FIG. 21. Imaging of C4-2B cells after 12 days' treatment with the indicated compounds.

EZH2 [11] = molecular target: T1, EZH2; assay: Western blot of EZH2 with esiRNA knockdown of VHL or siRNA control; assay type: cell-based; details: FIG. 16; siRNA control lane; duplicate
Protocol: FIG. 16. Cells were treated with indicated compounds with either esiRNA knockdown of VHL or siRNA control (no EZH2 knockdown) and blotted for EZH2 and VHL. […] Experiment was run in duplicate with both replicates shown on the left and right sides.

[12] = FIG. 7, 24 hours, 5 μM or 10 μM MG132
[13] = FIG. 1, increasing doses 24 or 48 hours, or 0.5 μM over a time course

SMILES: CCN(c1cc(-c2ccc(CN3CCN(C(=O)COCC(=O)NCCCC(=O)NCCOc4cccc5c4C(=O)N(C4CCC(=O)NC4=O)C5=O)CC3)cc2)cc(C(=O)NCc2c(C)cc(C)[nH]c2=O)c1C)C1CCOCC1 (stereo not drawn) [Compound 2186]
- EZH2 protein levels (western blot) (EZH2 [1]; FIG. 28, 24 hours): inactive at degrading EZH2

SMILES: CCN(c1cc(-c2ccc(CN3CCN(C(=O)CCCCCCCCC(=O)N[C@H](C(=O)N4C[C@H](O)C[C@H]4C(=O)NCc4ccc(-c5scnc5C)cc4)C(C)(C)C)CC3)cc2)cc(C(=O)NCc2c(C)cc(C)[nH]c2=O)c1C)C1CCOCC1 [Compound 6271]
- Restoration of EZH2 by proteasome inhibitor MG132 (EZH2 [1]; FIG. 11, 24 hours, 10 μM MG132): restored EZH2

SMILES: CCN(c1cc(-c2ccc(N3CCN(C(=O)CCC(=O)NCCCC(=O)NCCCC(=O)NCCCOc4cccc5c4C(=O)N(C4CCC(=O)NC4=O)C5=O)CC3)cc2)cc(C(=O)NCc2c(C)cc(C)[nH]c2=O)c1C)C1CCOCC1 (stereo not drawn) [Compound 2190]
- EZH2 protein levels (western blot) (EZH2 [1]; FIG. 28, 24 hours): reduce EZH2 protein levels

SMILES: CCN(c1cc(-c2ccc(CN3CCN(CCCCCCCCCCCC(=O)N[C@H](C(=O)N4C[C@@H](O)C[C@H]4C(=O)NCc4ccc(-c5scnc5C)cc4)C(C)(C)C)CC3)cc2)cc(C(=O)NCc2c(C)cc(C)[nH]c2=O)c1C)C1CCOCC1 [Compound 6300]
- Degradation of EZH2 (EZH2 [1]): no ability to degrade EZH2
- EZH2 protein (western blot) (EZH2 [3]): no changes
- Colonies (LNCaP cells [4]): attenuated anti-proliferative effects
- Cell proliferation by phase object confluence (LNCaP cells [5]): limited ability to inhibit cell proliferation
- Colonies (C4-2B cells [6]): attenuated anti-proliferative effects
- Cell density by imaging (LNCaP cells [7]): attenuated anti-proliferative effects
- Cell proliferation by phase object confluence (C4-2B cells [8]): limited ability to inhibit cell proliferation
- EZH2 protein (western blot) (EZH2 [9]): no changes
- Cell density by imaging (C4-2B cells [10]): attenuated anti-proliferative effects

SMILES: Cc1cc(C)c(CNC(=O)c2cc(-c3ccc(N4CCN(CCNC(=O)CC56CC7CC(CC(C7)C5)C6)CC4)nc3)cc3c2cnn3C(C)C)c(=O)[nH]1 [MS1943, reference compound]
- Ability to degrade EZH2 at 0.5 μM (EZH2 [1]; FIG. 28, 24 hours, 0.5 μM): no ability to degrade EZH2

SMILES: CCN(c1cc(-c2ccc(CN3CCOCC3)cc2)cc(C(=O)NCc2c(C)cc(C)[nH]c2=O)c1C)C1CCN(C(=O)CCCCCCCCCCCCCCC(=O)NCCOc2cccc3c2C(=O)N(C2CCC(=O)NC2=O)C3=O)CC1 (stereo not drawn) [Compound 2100]
- EZH2 protein levels (western blot) (EZH2 [1]; FIG. 28, 24 hours): reduce EZH2 protein levels

SMILES: CCN(c1cc(-c2ccc(CN3CCOCC3)cc2)cc(C(=O)NCc2c(C)cc(C)[nH]c2=O)c1C)C1CCN(C(=O)CCCCCCCCCCC(=O)NCCOc2cccc3c2C(=O)N(C2CCC(=O)NC2=O)C3=O)CC1 (stereo not drawn) [Compound 2099]
- EZH2 protein levels (western blot) (EZH2 [1]; FIG. 28, 24 hours): reduce EZH2 protein levels

Further lines, with some results ahead:

- EZH2 degradation, comparison within a list of VHL-PROTAC (EZH2 [1]; FIG. 4, 24 hours): most effective
- Degrading EZH2 protein (EZH2 [1]): effective in degrading EZH2 protein
- Degrading EZH2 protein, 2304 versus 2305 (EZH2 [1]; FIG. 6, 24 or 48 hours): more effective than 2305
- Restoration of EZH2 by proteasome inhibitor MG132 (EZH2 [1]; [12]): restored EZH2
- Restoration of EZH2 by proteasome inhibitor MG132 (EZH2 [1]; FIG. 11, 24 hours, 10 μM MG132): restored EZH2
- Degradation of EZH2 (EZH2 [1]): strong degradation of EZH2
- EZH2 protein levels (western blot) (EZH2 [1]; FIG. 28, 24 hours): significant reduction in EZH2
- half-life [2]: 3.5 to 6 h
SMILES: CCN(c1cc(-c2ccc(CN3CCN(C(=O)CCCCCCCCCCC(=O)N[C@H](C(=O)N4C[C@H](O)C[C@@H]4C(=O)NCc4ccc(-c5scnc5C)cc4)C(C)(C)C)CC3)cc2)cc(C(=O)NCc2c(C)cc(C)[nH]c2=O)c1C)C1CCOCC1 [Compound 2304, (2R,4R)-1-[(2S)-2-(12-{4-[(3′-{[(4,6-dimethyl-2-oxo-1,2-dihydropyridin-3-yl)methyl]carbamoyl}-5′-[ethyl(oxan-4-yl)amino]-4′-methyl-[1,1′-biphenyl]-4-yl)methyl]piperazin-1-yl}-12-oxododecanamido)-3,3-dimethylbutanoyl]-4-hydroxy-N-{[4-(4-methyl-1,3-thiazol-5-yl)phenyl]methyl}pyrrolidine-2-carboxamide]
- H3K27me3 levels (H3K27me3): reduced H3K27me3 levels
- Reduction of PRC2 component SUZ12 (SUZ12): reduction of PRC2 component SUZ12

- Degradation of EZH2 (EZH2 [1]): no ability to degrade EZH2
- EZH2 protein (western blot) (EZH2 [3]): no changes
- EZH2 protein (western blot) (EZH2 [9]): no changes
- Ability to degrade EZH2 with siRNA control (VHL present) (EZH2 [11]): inactive control
SMILES: CCN(c1cc(-c2ccc(CN3CCN(C(=O)CCCCCCCCCC(=O)N[C@H](C(=O)N4C[C@@H](O)C[C@H]4C(=O)NCc4ccc(-c5scnc5C)cc4)C(C)(C)C)CC3)cc2)cc(C(=O)NCc2c(C)cc(C)[nH]c2=O)c1C)C1CCOCC1 [Compound 6286]
- Colonies (LNCaP cells [4]): attenuated anti-proliferative effects
- Cell proliferation by phase object confluence (LNCaP cells [5]): limited ability to inhibit cell proliferation
- Colonies (C4-2B cells [6]): attenuated anti-proliferative effects
- Cell density by imaging (LNCaP cells [7]): attenuated anti-proliferative effects
- Cell proliferation by phase object confluence (C4-2B cells [8]): limited ability to inhibit cell proliferation
- Cell density by imaging (C4-2B cells [10]): attenuated anti-proliferative effects

- Degradation of EZH2 (EZH2 [1]): no ability to degrade EZH2
SMILES: CCN(c1cc(-c2ccc(CN3CCN(C(=O)CCCCCCCCCCC(=O)N[C@H](C(=O)N4C[C@@H](O)C[C@H]4C(=O)NCc4ccc(-c5scnc5C)cc4)C(C)(C)C)CC3)cc2)cc(C(=O)NCc2c(C)cc(C)[nH]c2=O)c1C)C1CCOCC1 [Compound 6285]

- EZH2 protein levels (western blot) (EZH2 [1]; [13]): decreases EZH2 protein levels
- Degrading EZH2 protein (EZH2 [1]): effective in degrading EZH2 protein
- Restoration of EZH2 by proteasome inhibitor MG132 (EZH2 [1]; [12]): restored EZH2
- EZH2 protein levels (western blot) (EZH2 [1]; FIG. 28, 24 hours): significant reduction in EZH2
- half-life [2]: 3.5 to 6 h
SMILES: CCN(c1cc(-c2ccc(CN3CCN(C(=O)CCCCCCCCCCCCCCC(=O)N[C@H](C(=O)C4C[C@H](O)C[C@H]4C(=O)NCc4ccc(-c5scnc5C)cc4)C(C)(C)C)CC3)cc2)cc(C(=O)NCc2c(C)cc(C)[nH]c2=O)c1C)C1CCOCC1 (stereo partly drawn) [Compound 2305]
- Rescue of EZH2 protein degradation by proteasome inhibitor MG132 (EZH2 [1]; FIG. 2, 5 μM compound with or without MG132): can be rescued by proteasome inhibitor MG132

- EZH2 protein levels (western blot) (EZH2 [1]; [13]): inactive
- Degrading EZH2 protein, versus 2305 (EZH2 [1]; FIG. 12, 24 hours): less effective than 2305
SMILES: CCN(c1cc(-c2ccc(CN3CCN(C(=O)CCCCCCCCCCCCCCC(=O)N[C@H](C(=O)N4C[C@@H](O)C[C@H]4C(=O)NCc4ccc(-c5scnc5C)cc4)C(C)(C)C)CC3)cc2)cc(C(=O)NCc2c(C)cc(C)[nH]c2=O)c1C)C1CCOCC1 [Compound 3571]

- Restoration of EZH2 by proteasome inhibitor MG132 (EZH2 [1]; FIG. 11, 24 hours, 10 μM MG132): restored EZH2
SMILES: CCN(c1cc(-c2ccc(CN3CCN(C(=O)CCCCCCCCCCCC(=O)N[C@H](C(=O)N4C[C@H](O)C[C@H]4C(=O)NCc4ccc(-c5scnc5C)cc4)C(C)(C)C)CC3)cc2)cc(C(=O)NCc2c(C)cc(C)[nH]c2=O)c1C)C1CCOCC1 [Compound 6273]
